The source of these data is article PMC11311697, “Exploring the Role of Neuropeptide PACAP in Cytoskeletal Function Using Spectroscopic Methods” (International Journal of Molecular Sciences, 2024).

Ends that are not written are not given here.

One test has as its target G-actin (Oryctolagus cuniculus, UniProt P68135). Briefly: Steady-state anisotropy of Alexa488NHS-labeled G-actin with PACAP. In kind it is binding, rabbit. Conditions: 0.2 µM A488NHS-labeled G-actin; PACAP 0 to 5 µM; 50 mM KCl, 1 mM MgCl2, 4 μM LatA, 1 mM EGTA, G-buffer pH 7.8; 20 °C; ex 488 nm; mean ± SD, at least three independent experiments; read-out: dissociation equilibrium constant (KD), in Figure 3. On the procedure: Actin was prepared from acetone-dried muscle powder from rabbit skeletal muscle according to the method of Spudich and Watt modified by Mossakowska et al.. Shortly, the acetone-dried powder was extracted in G-buffer (4 mM TRIS (Sigma-Aldrich, Saint Louis, MO, USA), 0.1 mM CaCl2 (Sigma-Aldrich, Saint Louis, MO, USA), 0.2 mM ATP (VWR International LLC, Radnor, PA, USA), 0.5 mM DTT (VWR International LLC, Radnor, PA, USA), pH 7.8), mixed on ice with a magnetic stirrer (30 min, 80 rpm). The mixture was filtered through quadruple-layered gauze, supplemented with additional G-buffer, mixed further (40 min, 80 rpm), filtered again, and centrifuged (30,000 rpm, 4 °C, 30 min). […] After clarification centrifugation (80,000 rpm, 30 min, 4 °C), the supernatant was removed and actin absorbance was measured using a spectrophotometer to determine its concentration. […]
For our investigation, we utilized A488NHS green-fluorescent dye, which remains stable between pH 4 and 10, with peak emission when excited at 488 nm. […] In vitro anisotropy and fluorescence emission measurements involved 0.2 µM Alexa488NHS-Mg^2+-ATP-G-actin (Alexa488NHS labeled G-actin) with varying PACAP concentrations. […] The cuvette (Hellma® fluorescence, ultra Micro, Suprasil® quartz, spectral range 200–2500 nm) had optical path lengths of ex = 10 mm/em = 2 mm. […]

The subject of a further test is Ca^2+-F-actin. Also on record: method as in doi:10.1007/s10973-024-13286-2, doi:10.1007/s10973-024-13289-z. Conditions: DSC; ref [81],[82]; cited from earlier work. (In DSC, transitions show as peaks or steps in heat flow.)
Test [1] relates to Ca^2+-G actin and Ca^2+-F actin. Conditions: DSC; ref [81],[82]; cited from earlier work. From the text: In previous investigations, we employed differential scanning calorimetry (DSC) to explore the impact of various PACAP fragments on the thermal stability of Ca^2+-G actin and Ca^2+-F actin.
A further test relates to Tau. Conditions: ref [1],[79]; cited from earlier work. The source says:
(§1) As mentioned above, PACAP plays a significant role in mitigating neuronal damage and promoting cell survival. […] The misfolding and aggregation of proteins such as Tau are hallmarks of neurodegenerative diseases like Alzheimer’s.

For the next test, the system named is caspase-3. Conditions: ref [1],[79]; cited from earlier work.
Excerpt: as §1

The test system of test [2] is adenylate cyclase, rat pituitary cells. Conditions: versus VIP, ref [2]; cited from earlier work. From the text: Pituitary adenylate cyclase-activating polypeptide (PACAP) was first isolated from the sheep hypothalamus in 1989 [1, 2]. It belongs to the vasoactive intestinal peptide (VIP)/glucagon/secretin peptide family, sharing 68% structural homology with VIP, but stimulating adenylate cyclase activity 1000 times more effectively in rat pituitary cells. PACAP plays crucial roles in the nervous and endocrine systems, acting as a hormone, neurotransmitter, vasodilator, and neuromodulator, and potentially having neurotrophic or neuroprotective functions. PACAP exists in two biologically ...

Test [3] has as its system streptozotocin-induced diabetes model. The arrangement: method as in PMID 34639032. Conditions: ref [76]; cited from earlier work.
A further test relates to astrocyte. Conditions: by increasing cAMP levels; ref [57]; cited from earlier work. The source says: The polymerization of G-actin into filamentous actin (F-actin) is essential for maintaining cellular structural integrity and supporting dynamic processes. Actin filaments, which form the cell’s cytoskeleton, provide mechanical strength and stability. The F-actin network supports various cellular functions, including cell migration, division, and intracellular transport, by continuously polymerizing and depolymerizing. The dynamic nature of F-actin allows cells to adapt to environmental changes and respond to signals, interacting with regulatory proteins to influence membrane protr ...
For orientation: Cyclic AMP is a second messenger, typically raised through Gs and lowered through Gi signalling.

Test [4] relates to traumatic brain injury (TBI). Conditions: intracerebroventricular (icv); brain regions such as corticospinal tract and medial longitudinal fasciculus; ref [45],[46]; cited from earlier work. From the text:
(§2) PACAP synergizes with multiple factors to promote neurite growth in different cell lines. It works with nerve growth factor (NGF) and VIP to stimulate neuritogenesis, increasing neurite length and branching, similar to brain-derived neurotrophic factor (BDNF). […] In traumatic central nervous system (CNS) injuries, PACAP has cytoprotective and antiapoptotic effects. It increases dihydropyrimidinase li ...

In test [5] the test system is dihydropyrimidinase like 2 (DPYL2). Conditions: ischemic brain tissue; ref [43],[44]; cited from earlier work.
Excerpt: as §2

Test [6] deals with neurite growth in different cell lines. Conditions: ref [40],[41],[42]; cited from earlier work.
Excerpt: as §2

The test system of another test is PAC1 receptor. Conditions: ref [7],[8]; cited from earlier work. From the text: PACAP can bind to VPAC1 (VIP receptor type 1) and VPAC2 (VIP receptor […]) receptors, which also bind VIP, due to their structural similarity. […] The high specificity of PAC1 receptors for PACAP makes them ideal for studying PACAP–receptor interactions. PAC1 receptors, being GS protein-coupled receptors (GPCRs ...

A word on the Kd: it is the constant that tells how readily two partners part at equilibrium. `CSCC[C@H](NC(=O)[C@H](CCC(N)=O)NC(=O)[C@H](CCCCN)NC(=O)[C@H](CCCNC(=N)N)NC(=O)[C@H](Cc1ccc(O)cc1)NC(=O)[C@H](CCCNC(=N)N)NC(=O)[C@H](CO)NC(=O)[C@H](Cc1ccc(O)cc1)NC(=O)[C@H](CO)NC(=O)[C@H](CC(=O)O)NC(=O)[C@@H](NC(=O)[C@@H](N)Cc1ccccc1)[C@@H](C)O)C(=O)N[C@@H](C)C(=O)N[C@H](C(=O)N[C@@H](CCCCN)C(=O)N[C@@H](CCCCN)C(=O)N[C@@H](Cc1ccc(O)cc1)C(=O)N[C@@H](CC(C)C)C(=O)N[C@@H](C)C(=O)N[C@@H](C)C(=O)N[C@H](C(=O)N[C@@H](CC(C)C)C(=O)NCC(=O)N[C@@H](CCCCN)C(=O)N[C@@H](CCCNC(=N)N)C(=O)N[C@@H](Cc1ccc(O)cc1)C(=O)N[C@@H](CCCCN)C(=O)N[C@@H](CCC(N)=O)C(=O)N[C@@H](CCCNC(=N)N)C(=O)N[C@H](C(=O)N[C@@H](CCCCN)C(=O)N[C@@H](CC(N)=O)C(=O)N[C@@H](CCCCN)C(N)=O)C(C)C)C(C)C)C(C)C` [PACAP6-38]: the Kd at G-actin was determined as 150.46 ± 0.03 nM.

Regarding `CC[C@H](C)[C@H](NC(=O)CNC(=O)[C@H](CC(=O)O)NC(=O)[C@H](CO)NC(=O)[C@@H](N)Cc1cnc[nH]1)C(=O)N[C@@H](Cc1ccccc1)C(=O)N[C@H](C(=O)N[C@@H](CC(=O)O)C(=O)N[C@@H](CO)C(=O)N[C@@H](Cc1ccc(O)cc1)C(=O)N[C@@H](CO)C(=O)N[C@@H](CCCNC(=N)N)C(=O)N[C@@H](Cc1ccc(O)cc1)C(=O)N[C@@H](CCCNC(=N)N)C(=O)N[C@@H](CCCCN)C(=O)N[C@@H](CCC(N)=O)C(=O)N[C@@H](CCSC)C(=O)N[C@@H](C)C(=O)N[C@H](C(=O)N[C@@H](CCCCN)C(=O)N[C@@H](CCCCN)C(=O)N[C@@H](Cc1ccc(O)cc1)C(=O)N[C@@H](CC(C)C)C(=O)N[C@@H](C)C(=O)N[C@@H](C)C(=O)N[C@H](C(=O)N[C@@H](CC(C)C)C(=O)NCC(=O)N[C@@H](CCCCN)C(=O)N[C@@H](CCCNC(=N)N)C(=O)N[C@@H](Cc1ccc(O)cc1)C(=O)N[C@@H](CCCCN)C(=O)N[C@@H](CCC(N)=O)C(=O)N[C@@H](CCCNC(=N)N)C(=O)N[C@H](C(=O)N[C@@H](CCCCN)C(=O)N[C@@H](CC(N)=O)C(=O)N[C@@H](CCCCN)C(N)=O)C(C)C)C(C)C)C(C)C)[C@@H](C)O` [PACAP38, Pituitary adenylate cyclase-activating polypeptide 38], the Kd at G-actin was 97.22 ± 0.01 nM.

In the case of “PACAP6-27: PACAP fragment examined by DSC in earlier studies (FTDSYSRYRKQMAVKKYLAAVL; ends and bridges not checked; UniProt P18509 137-158, looked up, fragment)”, in the test on Ca^2+-F-actin, the “denaturation temperature of Ca2+-F-actin compared with control (in words)” value is “did not show significant changes”. Further, the “effect on thermal properties of actin (in words)” value in [1] is listed as “altered the thermal stability of actin, albeit to a lesser degree”.

Take “Pituitary adenylate cyclase-activating polypeptide [PACAP]”: the “effect on Tau phosphorylation (in words)” value in the test on Tau was “enhances Tau phosphorylation and prevents its dephosphorylation”. In addition, in the test with caspase-3, the “effect on caspase-3 activity (in words)” value is reported as “inhibits caspase-3 activity”. Further, the “stimulation of adenylate cyclase activity relative to VIP” value in test [2] is on record as 1000 times. Further, the “effect on morphological signs of nerve injury and hyperalgesia (in words)” value in [3] was “reduced morphological signs of nerve injury (axon–myelin separation, elevated mitochondrial number in myelinated axons, unmyelinated fiber atrophy, and basement membrane thickening of endoneurial vessels) while also attenuating pressure and touch hyperalgesia”. Further, the “effect on actomyosin stress fibers (in words)” value in the test on astrocyte was “promotes actomyosin stress fiber depolymerization”. Besides, the “effect on axonal swellings and amyloid plaque accumulation (in words)” value in test [4] was “reduces axonal swellings and amyloid plaque accumulation”. In test [5], the “effect on DPYL2 protein levels (in words)” value is recorded as “increases dihydropyrimidinase like 2 (DPYL2) protein levels in ischemic brain tissue”. The “effect on axon growth / neurite growth (in words)” value in [6] is “enhances axon length and cell body size but does not affect dendrite length”.

As to vasoactive intestinal peptide [VIP], the “binding to PAC1 receptor (in words)” value in the test on PAC1 receptor was “low affinity”.
